Data from US20090239877A1, “NOVEL 1,2,4-TRIAZOLE DERIVATIVES AND PROCESS OF MANUFACTURING THEREOF” (AETERNA ZENTARIS GmbH, priority 2008, published 2009).

What was measured:
[1] = target: T1, human GHS-R 1a (Homo sapiens, UniProt Q92847); assay: GHS-R 1a receptor-ligand binding assay (membrane preparations from transfected LLC PK-1 cells); set-up: expressed in transfected cells; conditions: displacement of 125I-His9-ghrelin; plasma membranes of LLC PK-1 cells transiently transfected with human GHS-R 1a; mean of at least two independent experiments in triplicates
Protocol: II) GHS-R 1a Receptor-Ligand Binding Assay (Membrane Preparations from Transfected LLC PK-1 Cells)
The GHS-R 1a receptor binding/affinity studies were performed according to Guerlavais et al. (J. Med. Chem. 2003, 46: 1191-1203).
Isolated plasma membranes from LLC PK-1 cells, a renal epithelial cell line originally derived from porcine kidneys (ECACC No. 86121112) (10 μg of protein), that were transiently transfected with human GHS-R 1a cDNA (Guerlavais et al., J. Med. Chem. 2003, 46: 1191-1203), were incubated in homogenization buffer HB [50 mM Tris (pH 7.3), 5 mM MgCl2, 2.5 mM EDTA, and 30 μg/mL bacitracin (Sigma)] for 60 min at 25° C. (steady-state conditions) with […] ^125I-His^9-ghrelin (Amersham) in the presence or absence of competing compounds (compounds of the invention).
Nonspecific binding was defined using an excess (10^−6 M) of ghrelin. The binding reaction was stopped by addition of 4 mL of ice-cold HB followed by rapid filtration over Whatman GP/C filters presoaked with 0.5% polyethyleneimine to prevent excessive binding of radioligand to the filters. Filters were rinsed three times with 3 mL of icecold wash buffer [50 mM Tris (pH 7.3), 10 mM MgCl2, 2.5 mM EDTA, and 0.015% (w/v) X-100 Triton], and the radioactivity bound to membranes was measured in a gammacounter (Kontron Analytical Gamma Matic, Automatic gamma counting system).
The concentration of test compounds required to inhibit radiolabelled ghrelin binding by 50% (IC50) was determined by fitting competitive binding curves using non-linear regression (PRISM 3.0, Graph Pad San Diego, USA).
In the following table 2 results obtained for selected compounds of the invention are presented in comparison to an example of the prior art. IC50 values given are the mean of at least two independent experiments performed in triplicates.

[2] = target: T1, human GHS-R 1a; assay: In vitro intracellular calcium release assay using human GHS-R 1a transfected CHO cells; type: cell-based; set-up: expressed in transfected cells; host or cells: CHO-K1 Chinese hamster ovary cells (ATCC No. CCL-61), transient transfection by electroporation; conditions: for EC50: agonists, dose-response curve of intracellular calcium release; for activation at 1 µM: intracellular calcium release, compound at 10^-6 M, relative to basal level (0%) and 1 μM ghrelin (100%)
Protocol: The ability to properly activate the receptors is assessed for any compound of the invention by comparing the degree of activation (increase of intracellular calcium) of GHS-R 1a by the compound to be tested (at 10^−6 M concentration) to the degree of activation (increase of intracellular calcium) of GHS-R 1a by 10^−6 M ghrelin (100%) and to the basal level (0%). Such assessment can be readily performed by the skilled artisan due to his expert knowledge. The output is a percentage value for each compound to be tested. […]
III) In Vitro Intracellular Calcium Release Assay Using Human GHS-R 1a Transfected CHO Cells
The potential of the compounds of the invention to modulate GHS receptor activity was assessed by an in vitro intracellular Calcium release assay employing CHO cells that were transfected with human GHS-R 1a.
Release of intracellular calcium or inhibition thereof was measured using the fluorescent calcium indicator assay (FLIPR) and Fluo-4 AM.
CHO cells (CHO-KI Chinese Hamster Ovary cell line, ATCC No. CCL-61) were transiently transfected with human GHS-R 1a cDNA by electroporation and plated into 96-well black bottom plates (Corning 3603) (80,000 cells/well). Transient transfections were performed using the Easyject Optima Electroporator (Equibio), according to the manufacturer's instructions.
Transfected cells were grown in Dulbecco's modified Eagle's medium without phenol red, supplemented with 10% (v/v) non-essential amino acids, […] glutamine and streptomycin-penicillin (250 μg/ml-250 u/ml) (all purchased from Cambrex) at 37° C., 5% CO2 in a humidified atmosphere for 24 hours.
After incubation, transfected cells were washed with 150 μl Buffer A [Hanks' balanced salt solution (Sigma H-6648), 0.5% (v/v) BSA (Sigma A-7906), 20 mM CaCl2, 2.5 mM probenecid (pH 7.4, dissolved in 1 M NaOH) (Sigma P-8761)] and were then loaded with fluorescent calcium indicator Fluo-4 AM (10^−6 M) (Interchim UP72972) prepared in Buffer A, additionally containing 0.06% pluronic acid (Molecular probes P-6867) (a […] detergent which facilitates Fluo-4AM ester loading). (Loading: 100 μl per well of Buffer A containing 120 μl/ml Pluronic Acid and 1 μM Fluo-4AM was added to the cells).
After loading with Fluo-4 AM, transfected cells were incubated for 1 hour in the dark at 37° C.
Compounds to be tested were dissolved in Buffer A in triplicates at a concentration of 10^−6 M and distributed into another 96-well plate (Fisher Labosi A1210500).
Following incubation, excess Fluo-4AM was removed, 100 μl of Buffer A was added to each well at room temperature and immediately removed by aspiration. This was then repeated, before adding 50 μl Buffer A to each well.
Transfected cells were further incubated room temperature for 30 min to allow complete de-esterification of intracellular Fluo-4AM esters.
Subsequently, both plates, the black-bottom plate containing transfected cells and the microtiter plate containing the compounds to be tested, were then placed into a temperature-regulated (25° C.) FlexStation machine (benchtop scanning fluorometer Flex Station II, Molecular Devices, Sunnyvale, Calif., USA) for fluorescence output measurements.
Basal fluorescence output from the transfected cells was measured for 15 sec and then 50 μl of the compounds to be tested were automatically distributed into the wells containing the transfected cells. The fluorescence output was then recorded for a further 45 sec.
Excitation and emission wavelengths were 485 nm and 525 nm, respectively. Basal fluorescence intensity of Fluo-4AM-loaded transfected cells without compounds to be tested varied between 800-1200 arbitrary units, whereas maximal fluorescence output of dye-loaded transfected cells upon incubation with the compounds to be tested varied between 5000-7000 arbitrary units and was equivalent to that achieved by stimulation of dye-loaded transfected cells with 10^−6 M ghrelin. […]

T1 sequence (Q92847 whole entry): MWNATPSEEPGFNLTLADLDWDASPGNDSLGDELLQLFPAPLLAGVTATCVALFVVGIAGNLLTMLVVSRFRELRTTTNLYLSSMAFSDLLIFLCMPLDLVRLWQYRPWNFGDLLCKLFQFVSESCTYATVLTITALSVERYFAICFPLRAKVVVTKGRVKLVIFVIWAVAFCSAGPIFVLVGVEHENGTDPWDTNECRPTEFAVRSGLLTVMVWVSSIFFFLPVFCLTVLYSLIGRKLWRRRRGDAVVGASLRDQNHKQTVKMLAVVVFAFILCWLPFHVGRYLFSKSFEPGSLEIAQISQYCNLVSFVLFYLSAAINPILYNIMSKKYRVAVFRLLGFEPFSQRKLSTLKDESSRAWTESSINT

| IC50 [1] [µM] | EC50 [2] [µM] | activation at 1 µM [2] [%] | Structure (SMILES) |
| --- | --- | --- | --- |
| 0.017 | 0.002 | 120 | O=C(N[C@H](Cc1c[nH]c2ccccc12)c1nnc(CCc2ccccc2)n1Cc1cccc2ccccc12)C1CCNCC1 [Compound 15, N-((R)-2-(1H-indol-3-yl)-1-(4-((naphthalen-1-yl)methyl)-5-phenethyl-4H-1,2,4-triazol-3-yl)ethyl)piperidine-4-carboxamide] |
| 0.18 | 0.0006 | 80 | O=C(N[C@H](Cc1c[nH]c2ccccc12)c1nnc(CCc2c[nH]c3ccccc23)n1Cc1cccc2ccccc12)C1CCOCC1 [Compound 20, N-((R)-1-(5-(2-(1H-indol-3-yl)ethyl)-4-((naphthalen-1-yl)methyl)-4H-1,2,4-triazol-3-yl)-2-(1H-indol-3-yl)ethyl)-tetrahydro-2H-pyran-4-carboxamide] |
|  | 0.017 | 60 | O=C(N[C@H](Cc1c[nH]c2ccccc12)c1nnc(Cc2ccccc2)n1Cc1ccc(Cl)c(Cl)c1)[C@@H]1CCCN1 [Compound 35, (2S)-N-((R)-1-(4-(3,4-dichlorobenzyl)-5-benzyl-4H-1,2,4-triazol-3-yl)-2-(1H-indol-3-yl)ethyl)pyrrolidine-2-carboxamide] |
| 0.0278 |  |  | COc1ccc(Cn2c(CCc3ccccc3)nnc2[C@@H](Cc2ccc3ccccc3c2)NC(=O)C2CCCN2)cc1 (stereo partly drawn) [Compound 59, N-((R)-1-(4-(4-methoxybenzyl)-5-phenethyl-4H-1,2,4-triazol-3-yl)-2-(naphthalen-2-yl)ethyl)pyrrolidine-2-carboxamide] |
| 0.825 |  |  | O=C(N[C@H](Cc1c[nH]c2ccccc12)c1nnc(CCc2ccccc2)n1CCc1ccccc1)c1cnccn1 [Compound 66, N-((R)-2-(1H-indol-3-yl)-1-(4,5-diphenethyl-4H-1,2,4-triazol-3-yl)ethyl)pyrazine-2-carboxamide] |
| 0.15 |  |  | CC(C)(N)C(=O)N[C@H](Cc1c[nH]c2ccccc12)c1nnc(CCc2ccccc2)n1Cc1ccc(-c2ccccc2)cc1 [Compound 73, 2-amino-N-((R)-1-(4-(4-phenylbenzyl)-5-phenethyl-4H-1,2,4-triazol-3-yl)-2-(1H-indol-3-yl)ethyl)-2-methylpropanamide] |
| 0.107 |  |  | O=C(Cc1ccccn1)N[C@H](Cc1c[nH]c2ccccc12)c1nnc(CCc2ccccc2)n1Cc1cccc2ccccc12 [Compound 50, N-((R)-2-(1H-indol-3-yl)-1-(4-((naphthalen-1-yl)methyl)-5-phenethyl-4H-1,2,4-triazol-3-yl)ethyl)-2-(pyridin-2-yl)acetamide] |

More lines, now with the values behind:

| Structure (SMILES) | IC50 [1] [µM] | EC50 [2] [µM] | activation at 1 µM [2] [%] |
| --- | --- | --- | --- |
| COc1ccc(Cn2c(CCc3ccccc3)nnc2[C@@H](Cc2c[nH]c3ccccc23)NC(=O)[C@H]2CNCCN2)cc1 [Compound 2, (2R)-N-((R)-1-(4-(4-methoxybenzyl)-5-phenethyl-4H-1,2,4-triazol-3-yl)-2-(1H-indol-3-yl)ethyl)piperazine-2-carboxamide] | 0.143 | 0.017 | 40 |
| NC1(C(=O)N[C@H](Cc2c[nH]c3ccccc23)c2nnc(CCCc3c[nH]c4ccccc34)n2Cc2ccccc2)CCNCC1 [Compound 43, N-((R)-1-(5-(3-(1H-indol-3-yl)propyl)-4-benzyl-4H-1,2,4-triazol-3-yl)-2-(1H-indol-3-yl)ethyl)-4-aminopiperidine-4-carboxamide] | 0.035 | 0.0064 |  |
| COc1cccc(Cn2c(CCCc3ccccc3)nnc2[C@@H](Cc2c[nH]c3ccccc23)NC(=O)C(C)(C)N)c1 [Compound 1, N-((R)-1-(4-(3-methoxybenzyl)-5-(3-phenylpropyl)-4H-1,2,4-triazol-3-yl)-2-(1H-indol-3-yl)ethyl)-2-amino-2-methylpropanamide] | 0.38 |  | 47 |
| NC1(C(=O)N[C@H](Cc2c[nH]c3ccccc23)c2nnc(CCc3c[nH]c4ccccc34)n2Cc2cccc3ccccc23)CCNCC1 [Compound 48, N-((R)-1-(5-(2-(1H-indol-3-yl)ethyl)-4-((naphthalen-1-yl)methyl)-4H-1,2,4-triazol-3-yl)-2-(1H-indol-3-yl)ethyl)-4-aminopiperidine-4-carboxamide] | 0.012 | 0.0039 | 100 |
| O=C(N[C@H](Cc1c[nH]c2ccccc12)c1nnc(CCc2c[nH]c3ccccc23)n1Cc1cccc2ccccc12)[C@@H]1CCCN1 [Compound 31, (2S)-N-((R)-1-(5-(2-(1H-indol-3-yl)ethyl)-4-((naphthalen-1-yl)methyl)-4H-1,2,4-triazol-3-yl)-2-(1H-indol-3-yl)ethyl)pyrrolidine-2-carboxamide] | 0.505 | 0.0027 | 100 |
| COc1ccc(Cn2c(CCc3ccccc3)nnc2[C@@H](Cc2c[nH]c3ccccc23)NC(=O)C2(N)CCNCC2)c(OC)c1 [Compound 10, N-((R)-1-(4-(2,4-dimethoxybenzyl)-5-phenethyl-4H-1,2,4-triazol-3-yl)-2-(1H-indol-3-yl)ethyl)-4-aminopiperidine-4-carboxamide] | 0.0013 | 0.002 | 100 |
| COc1ccc(Cn2c(CCc3c[nH]c4ccccc34)nnc2[C@@H](Cc2c[nH]c3ccccc23)NC(=O)c2cccc(CN)c2)cc1 [Compound 13, N-((R)-1-(5-(2-(1H-indol-3-yl)ethyl)-4-(4-methoxybenzyl)-4H-1,2,4-triazol-3-yl)-2-(1H-indol-3-yl)ethyl)-3-(amino-methyl)benzamide] | 0.0111 | 0.0025 | 70 |
| O=C(N[C@H](Cc1c[nH]c2ccccc12)c1nnc(CCc2ccccc2)n1CCc1ccccc1)c1ccccc1 [Compound 63, N-((R)-2-(1H-indol-3-yl)-1-(4,5-diphenethyl-4H-1,2,4-triazol-3-yl)ethyl)benzamide] | 0.535 |  |  |
